Assay results as given in PubChem BioAssay (NCI).
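All cell lines were grown in 96-well plates and treated with compound for 48 hours. GI50 = concentration required for 50% inhibition of growth. TGI marks complete inhibition of growth.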

How the values were obtained:
Test in all cases: NCI anticancer screen, dose series, 48 h
A549 NSCLC = system: A549 NSCLC
LOX IMVI melanoma = system: LOX IMVI melanoma
TK-10 renal = system: TK-10 renal
T-47D breast = system: T-47D breast
SF-295 CNS = system: SF-295 CNS
MOLT-4 leukemia = system: MOLT-4 leukemia
OVCAR-8 ovarian = system: OVCAR-8 ovarian
SK-OV-3 ovarian = system: SK-OV-3 ovarian
SK-MEL-28 melanoma = system: SK-MEL-28 melanoma

Row | Compound | TGI (A549 NSCLC) [µM] | TGI (LOX IMVI melanoma) [µM] | TGI (TK-10 renal) [µM] | TGI (T-47D breast) [µM] | TGI (SF-295 CNS) [µM] | TGI (MOLT-4 leukemia) [µM] | TGI (OVCAR-8 ovarian) [µM] | TGI (SK-OV-3 ovarian) [µM] | TGI (SK-MEL-28 melanoma) [µM] | GI50 (A549 NSCLC) [µM] | GI50 (LOX IMVI melanoma) [µM] | GI50 (TK-10 renal) [µM] | GI50 (T-47D breast) [µM] | GI50 (SF-295 CNS) [µM] | GI50 (MOLT-4 leukemia) [µM] | GI50 (OVCAR-8 ovarian) [µM] | GI50 (SK-OV-3 ovarian) [µM] | GI50 (SK-MEL-28 melanoma) [µM]
1 | CCOC(=O)c1ccc2[nH]c(-c3ccc(S(=O)(=O)F)cc3)cc(=O)c2c1 | > 100 | > 100 | > 100 | > 100 | > 100 | > 100 | > 100 | > 100 | > 100 |  |  |  |  |  |  |  |  | 
2 | O=C1c2ccccc2-c2c1c1ccccc1c(=O)n2CCCCNCCCn1c2c(c3ccccc3c1=O)C(=O)c1ccccc1-2 | 2.9 | 0.76 | 4.32 | 4.86 | 2.33 | 0.452 | 1.5 | 50 | 34.8 | 0.508 | 0.0499 | 0.887 | 1.32 | 0.27 | 0.016 | 0.256 | 5.35 | 2.95
3 | CCCCC[C@H](O)/C=C/[C@@H]1[C@@H](C/C=C\CCCC(=O)O)[C@@H](O)C[C@H]1O | > 100 | > 100 | > 100 | > 100 | > 100 | > 100 | > 100 | > 100 | > 100 | > 100 | > 100 | > 100 | > 100 | > 100 | > 100 | > 100 | > 100 | > 100
4 | CC12CCC3C(CCC4Cc5[nH]c6ccccc6c5CC43C)C1CCC2O (stereo not drawn) | > 100 | 7.13 | > 100 | > 100 | 3.26 | > 100 | > 100 | > 100 | > 100 | 2.63 | 1.01 | 2.73 | 2.3 | 0.3 | 2.55 | 4.1 | 2.81 | 0.813
5 | Nc1c(C(=O)c2cccc(CCCN3CCOCC3)c2)cnn1-c1ccc(F)cc1 | > 25 | > 25 | > 25 | > 25 | > 25 | > 25 | > 25 | > 25 | > 25 | > 25 | > 25 | > 25 | > 23.7 | > 25 | > 25 | > 25 | > 25 | > 25
6 | COc1cc(C(=O)/C=C/c2c(C)n([O-])c3ccc(C)cc3[n+]2=O)cc(OC)c1OC | 82.1 | 5.91 | > 34.6 | 5.81 | > 68 | > 29.8 | > 56.4 | > 100 | 6.54 | 15.7 | 2.11 | 3.77 | 2.23 | 22.8 | 3.57 | 3.46 | 32.7 | 2.41
7 | Cc1cc2nc(C(C)C(=O)c3ccc(Cl)cc3)c(=O)[nH]c2cc1C (stereo not drawn) | > 100 | > 100 | 75.2 | > 100 | > 100 | > 100 | > 100 | > 100 | > 100 |  |  |  |  |  |  |  |  | 
